In ChEMBL document CHEMBL4507299, “Data for DCP probe PF-04554878” (2021):

Tests used:
[1] = molecular target: Serine/threonine-protein kinase 10 (Homo sapiens) (UniProt O94804)
[2] = molecular target: Receptor-type tyrosine-protein kinase FLT3 (Homo sapiens) (UniProt P36888)
[3] = molecular target: Ribosomal protein S6 kinase alpha-6 (Homo sapiens) (UniProt Q9UK32)
[4] = molecular target: Serine/threonine-protein kinase PknB (Mycobacterium tuberculosis) (UniProt P9WI81)
[5] = molecular target: Serine/threonine-protein kinase 26 (Homo sapiens) (UniProt Q9P289)
[6] = molecular target: Serine/threonine-protein kinase MAK (Homo sapiens) (UniProt P20794)
[7] = molecular target: Phosphatidylinositol 5-phosphate 4-kinase type-2 beta (Homo sapiens) (UniProt P78356)
[8] = molecular target: Ribosomal protein S6 kinase alpha-2 (Homo sapiens) (UniProt Q15349)
[9] = test system: Epidermal growth factor receptor (Homo sapiens), P00533 [UNDEFINED MUTATION]
[10] = molecular target: Vascular endothelial growth factor receptor 1 (Homo sapiens, UniProt P17948)
Sequence of Vascular endothelial growth factor receptor 1 (P17948 whole entry): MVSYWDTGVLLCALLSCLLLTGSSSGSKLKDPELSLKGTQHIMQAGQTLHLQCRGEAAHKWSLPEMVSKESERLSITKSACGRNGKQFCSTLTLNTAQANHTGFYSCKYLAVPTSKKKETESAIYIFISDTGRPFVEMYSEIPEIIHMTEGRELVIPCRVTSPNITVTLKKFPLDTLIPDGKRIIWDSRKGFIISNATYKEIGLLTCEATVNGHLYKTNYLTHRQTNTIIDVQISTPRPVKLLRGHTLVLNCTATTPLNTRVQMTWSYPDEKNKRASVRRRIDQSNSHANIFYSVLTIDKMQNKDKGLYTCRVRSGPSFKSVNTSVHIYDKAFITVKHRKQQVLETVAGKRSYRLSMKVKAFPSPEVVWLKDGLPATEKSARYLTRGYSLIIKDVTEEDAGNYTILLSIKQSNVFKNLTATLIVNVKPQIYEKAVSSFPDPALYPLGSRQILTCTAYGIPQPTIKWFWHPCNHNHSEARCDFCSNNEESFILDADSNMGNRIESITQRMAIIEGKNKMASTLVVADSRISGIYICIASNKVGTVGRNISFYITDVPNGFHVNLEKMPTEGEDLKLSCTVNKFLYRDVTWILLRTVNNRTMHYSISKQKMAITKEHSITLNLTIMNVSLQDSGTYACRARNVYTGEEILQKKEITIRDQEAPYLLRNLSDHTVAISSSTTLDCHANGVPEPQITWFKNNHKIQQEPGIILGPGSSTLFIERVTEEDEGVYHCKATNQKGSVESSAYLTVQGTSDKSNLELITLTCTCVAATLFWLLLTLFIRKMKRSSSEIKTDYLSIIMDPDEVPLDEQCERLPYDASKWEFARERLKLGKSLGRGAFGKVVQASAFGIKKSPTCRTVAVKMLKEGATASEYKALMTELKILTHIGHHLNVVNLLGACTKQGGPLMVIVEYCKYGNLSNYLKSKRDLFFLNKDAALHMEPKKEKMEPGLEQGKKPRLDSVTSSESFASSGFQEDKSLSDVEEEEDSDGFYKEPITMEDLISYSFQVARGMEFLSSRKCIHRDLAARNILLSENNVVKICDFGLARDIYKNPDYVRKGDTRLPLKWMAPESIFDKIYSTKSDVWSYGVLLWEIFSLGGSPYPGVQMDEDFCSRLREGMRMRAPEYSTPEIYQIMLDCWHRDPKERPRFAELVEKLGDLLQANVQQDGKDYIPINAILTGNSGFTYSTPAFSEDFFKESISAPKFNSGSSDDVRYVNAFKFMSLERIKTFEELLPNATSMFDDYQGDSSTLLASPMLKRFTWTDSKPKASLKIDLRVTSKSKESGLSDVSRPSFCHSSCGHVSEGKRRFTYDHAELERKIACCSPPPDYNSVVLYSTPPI

[11] = molecular target: Serine/threonine-protein kinase D2 (Homo sapiens) (UniProt Q9BZL6)
[12] = molecular target: Calcium/calmodulin-dependent protein kinase type 1B (Homo sapiens) (UniProt Q6P2M8)
[13] = molecular target: Histamine H2 receptor (Homo sapiens) (UniProt P25021); details: Compound concentration 10.0 uM
[14] = molecular target: Serine/threonine-protein kinase Nek7 (Homo sapiens) (UniProt Q8TDX7)
[15] = test system: Hepatocyte growth factor receptor (Homo sapiens), P08581 [Y1235D]
[16] = molecular target: Ribosomal protein S6 kinase alpha-1 (Homo sapiens) (UniProt Q15418)
[17] = molecular target: Serine/threonine-protein kinase PAK 3 (Homo sapiens) (UniProt O75914)
[18] = molecular target: Serine/threonine-protein kinase PAK 1 (Homo sapiens) (UniProt Q13153)
[19] = molecular target: Serine/threonine-protein kinase PLK3 (Homo sapiens) (UniProt Q9H4B4)
[20] = molecular target: Receptor-interacting serine/threonine-protein kinase 1 (Homo sapiens) (UniProt Q13546)
[21] = molecular target: Serine/threonine-protein kinase Nek11 (Homo sapiens) (UniProt Q8NG66)
[22] = test system: Serine/threonine-protein kinase B-raf (Homo sapiens), P15056 [V600E]
[23] = molecular target: Mitogen-activated protein kinase 11 (Homo sapiens) (UniProt Q15759)
Sequence of Mitogen-activated protein kinase 11 (Homo sapiens) (Q15759 whole entry): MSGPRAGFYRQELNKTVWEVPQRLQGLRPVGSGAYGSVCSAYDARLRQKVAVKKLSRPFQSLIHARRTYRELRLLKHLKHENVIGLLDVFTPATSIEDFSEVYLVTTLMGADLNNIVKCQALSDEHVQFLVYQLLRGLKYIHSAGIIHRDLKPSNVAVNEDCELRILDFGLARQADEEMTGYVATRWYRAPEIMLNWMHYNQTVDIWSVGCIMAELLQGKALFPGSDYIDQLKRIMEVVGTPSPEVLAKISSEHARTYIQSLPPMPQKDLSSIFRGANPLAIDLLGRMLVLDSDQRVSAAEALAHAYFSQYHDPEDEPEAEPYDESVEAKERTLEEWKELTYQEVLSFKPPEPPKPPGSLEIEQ

[24] = molecular target: Ribosomal protein S6 kinase alpha-4 (Homo sapiens) (UniProt O75676)
[25] = molecular target: Activin receptor type-1-like (Homo sapiens) (UniProt P37023)
Sequence of Activin receptor type-1-like (Homo sapiens) (P37023 whole entry): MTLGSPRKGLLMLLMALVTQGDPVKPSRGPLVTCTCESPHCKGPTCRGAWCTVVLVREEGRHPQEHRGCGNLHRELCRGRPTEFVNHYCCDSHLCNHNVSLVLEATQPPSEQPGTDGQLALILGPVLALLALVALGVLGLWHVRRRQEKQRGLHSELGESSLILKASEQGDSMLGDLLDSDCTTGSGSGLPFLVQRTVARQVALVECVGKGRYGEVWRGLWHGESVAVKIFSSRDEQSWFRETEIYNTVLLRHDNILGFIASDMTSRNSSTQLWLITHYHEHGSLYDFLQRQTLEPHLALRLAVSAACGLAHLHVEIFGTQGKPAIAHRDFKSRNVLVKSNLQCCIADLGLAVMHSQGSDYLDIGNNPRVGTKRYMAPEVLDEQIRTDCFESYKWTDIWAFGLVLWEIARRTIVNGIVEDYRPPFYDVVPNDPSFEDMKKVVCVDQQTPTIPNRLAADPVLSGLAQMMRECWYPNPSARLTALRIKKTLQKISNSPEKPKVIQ

[26] = molecular target: Macrophage-stimulating protein receptor (Homo sapiens) (UniProt Q04912)
[27] = molecular target: Casein kinase I isoform delta (Homo sapiens) (UniProt P48730)
[28] = molecular target: Fibroblast growth factor receptor 4 (Homo sapiens) (UniProt P22455)
[29] = molecular target: Ephrin type-A receptor 4 (Homo sapiens) (UniProt P54764)
[30] = molecular target: Ephrin type-A receptor 6 (Homo sapiens) (UniProt Q9UF33)
Sequence of Ephrin type-A receptor 6 (Homo sapiens) (Q9UF33 whole entry): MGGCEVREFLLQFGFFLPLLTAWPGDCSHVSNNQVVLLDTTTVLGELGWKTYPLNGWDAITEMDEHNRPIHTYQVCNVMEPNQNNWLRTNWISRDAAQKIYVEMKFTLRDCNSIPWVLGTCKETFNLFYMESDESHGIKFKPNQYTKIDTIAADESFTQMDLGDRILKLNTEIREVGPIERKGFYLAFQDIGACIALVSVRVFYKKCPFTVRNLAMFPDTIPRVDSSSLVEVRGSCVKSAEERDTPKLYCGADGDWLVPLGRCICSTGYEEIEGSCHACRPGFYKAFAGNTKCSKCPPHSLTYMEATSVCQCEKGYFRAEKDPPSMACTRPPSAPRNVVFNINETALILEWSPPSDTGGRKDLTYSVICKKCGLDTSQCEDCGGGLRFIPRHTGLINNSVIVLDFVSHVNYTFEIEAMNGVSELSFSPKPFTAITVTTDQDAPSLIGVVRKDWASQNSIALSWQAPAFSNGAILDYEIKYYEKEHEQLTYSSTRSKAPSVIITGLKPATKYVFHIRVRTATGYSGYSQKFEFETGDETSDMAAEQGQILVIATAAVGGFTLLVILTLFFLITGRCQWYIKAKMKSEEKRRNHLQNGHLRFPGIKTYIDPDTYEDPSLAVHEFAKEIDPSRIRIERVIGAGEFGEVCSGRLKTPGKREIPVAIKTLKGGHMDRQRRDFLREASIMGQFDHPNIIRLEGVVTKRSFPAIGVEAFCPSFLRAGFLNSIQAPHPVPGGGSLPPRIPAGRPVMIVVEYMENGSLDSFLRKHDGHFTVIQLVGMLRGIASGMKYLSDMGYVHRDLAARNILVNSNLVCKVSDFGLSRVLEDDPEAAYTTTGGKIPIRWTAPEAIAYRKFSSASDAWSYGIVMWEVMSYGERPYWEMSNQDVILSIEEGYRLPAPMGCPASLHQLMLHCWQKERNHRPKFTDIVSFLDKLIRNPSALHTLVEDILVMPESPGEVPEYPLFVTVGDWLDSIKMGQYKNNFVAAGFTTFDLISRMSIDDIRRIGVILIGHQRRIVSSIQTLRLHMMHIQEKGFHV

[31] = molecular target: Casein kinase II subunit alpha (Homo sapiens) (UniProt P68400)
[32] = molecular target: Receptor-type tyrosine-protein kinase FLT3 (Homo sapiens) (UniProt P36888); remark: listed apart in the source
[33] = molecular target: Protein kinase C eta type (Homo sapiens) (UniProt P24723)
[34] = molecular target: Serine/threonine-protein kinase NIM1 (Homo sapiens) (UniProt Q8IY84)
[35] = test system: Mast/stem cell growth factor receptor Kit (Homo sapiens), P10721 [V559D]
[36] = molecular target: Serine/threonine-protein kinase 38 (Homo sapiens) (UniProt Q15208)
[37] = molecular target: Serine/threonine-protein kinase D3 (Homo sapiens) (UniProt O94806)
[38] = molecular target: Ankyrin repeat and protein kinase domain-containing protein 1 (Homo sapiens) (UniProt Q8NFD2)
[39] = molecular target: Mast/stem cell growth factor receptor Kit (Homo sapiens) (UniProt P10721)
[40] = molecular target: Myosin light chain kinase, smooth muscle (Homo sapiens) (UniProt Q15746)
[41] = molecular target: Mitogen-activated protein kinase 6 (Homo sapiens) (UniProt Q16659)
[42] = molecular target: cGMP-dependent protein kinase 1 (Homo sapiens) (UniProt Q13976)
Sequence of cGMP-dependent protein kinase 1 (Homo sapiens) (Q13976 whole entry): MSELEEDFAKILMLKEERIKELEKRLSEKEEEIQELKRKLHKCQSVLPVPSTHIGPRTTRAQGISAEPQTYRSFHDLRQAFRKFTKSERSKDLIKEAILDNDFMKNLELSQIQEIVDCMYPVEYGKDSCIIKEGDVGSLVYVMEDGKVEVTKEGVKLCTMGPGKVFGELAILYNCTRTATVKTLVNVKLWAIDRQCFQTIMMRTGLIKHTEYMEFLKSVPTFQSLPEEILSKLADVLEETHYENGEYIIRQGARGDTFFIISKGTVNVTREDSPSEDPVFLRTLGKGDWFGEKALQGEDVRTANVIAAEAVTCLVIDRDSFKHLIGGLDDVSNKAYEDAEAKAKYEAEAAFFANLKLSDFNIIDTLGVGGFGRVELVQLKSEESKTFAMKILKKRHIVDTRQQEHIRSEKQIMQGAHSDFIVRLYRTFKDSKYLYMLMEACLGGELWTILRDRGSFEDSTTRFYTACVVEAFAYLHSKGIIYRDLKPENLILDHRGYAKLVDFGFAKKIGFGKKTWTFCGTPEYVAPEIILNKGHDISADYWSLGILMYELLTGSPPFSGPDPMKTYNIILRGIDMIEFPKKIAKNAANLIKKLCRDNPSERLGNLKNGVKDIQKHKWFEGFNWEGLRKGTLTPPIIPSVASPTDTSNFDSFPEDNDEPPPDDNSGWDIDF

[43] = test system: Mast/stem cell growth factor receptor Kit (Homo sapiens), P10721 [V559D,T670I]
[44] = molecular target: Serine/threonine-protein kinase Nek4 (Homo sapiens) (UniProt P51957)
[45] = molecular target: Mitogen-activated protein kinase 8 (Homo sapiens) (UniProt P45983)
[46] = Compound concentration 100.0 nM
[47] = Compound concentration 1000.0 nM

Sequence of Receptor-type tyrosine-protein kinase FLT3 (Homo sapiens) (P36888 whole entry): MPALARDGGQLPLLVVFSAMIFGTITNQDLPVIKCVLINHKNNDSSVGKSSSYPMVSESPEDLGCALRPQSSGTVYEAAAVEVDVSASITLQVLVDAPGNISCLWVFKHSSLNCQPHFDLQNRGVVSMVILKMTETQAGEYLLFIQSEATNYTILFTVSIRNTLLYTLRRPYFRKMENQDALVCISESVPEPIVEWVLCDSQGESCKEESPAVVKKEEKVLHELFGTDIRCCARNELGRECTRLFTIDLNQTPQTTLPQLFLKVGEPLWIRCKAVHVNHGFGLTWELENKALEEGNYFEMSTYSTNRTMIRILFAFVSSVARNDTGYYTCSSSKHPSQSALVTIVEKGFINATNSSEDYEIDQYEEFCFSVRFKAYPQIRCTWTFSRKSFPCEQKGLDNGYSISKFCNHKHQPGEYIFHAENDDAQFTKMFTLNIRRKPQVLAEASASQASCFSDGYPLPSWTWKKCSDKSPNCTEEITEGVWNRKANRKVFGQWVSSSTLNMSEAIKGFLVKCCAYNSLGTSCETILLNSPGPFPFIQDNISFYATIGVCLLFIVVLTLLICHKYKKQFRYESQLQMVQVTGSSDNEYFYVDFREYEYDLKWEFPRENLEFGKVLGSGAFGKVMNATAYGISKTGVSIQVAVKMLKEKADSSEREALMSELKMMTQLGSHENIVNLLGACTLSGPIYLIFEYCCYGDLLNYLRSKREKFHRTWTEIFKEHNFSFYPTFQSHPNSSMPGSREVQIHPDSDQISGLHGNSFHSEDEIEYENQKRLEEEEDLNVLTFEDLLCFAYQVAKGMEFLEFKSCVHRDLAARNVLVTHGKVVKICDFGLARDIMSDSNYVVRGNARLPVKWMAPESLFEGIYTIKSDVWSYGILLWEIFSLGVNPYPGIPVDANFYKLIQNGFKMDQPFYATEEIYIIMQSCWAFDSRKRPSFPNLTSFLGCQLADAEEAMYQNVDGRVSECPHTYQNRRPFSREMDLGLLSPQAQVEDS

CNC(=O)c1ccc(Nc2ncc(C(F)(F)F)c(NCc3nccnc3N(C)S(C)(=O)=O)n2)cc1 [DEFACTINIB]
residual activity [1, 46]: 77%
residual activity [2, 46]: 46%
residual activity [3, 46]: 70%
residual activity [4, 46]: 69%
residual activity [5, 46]: 95%
residual activity [6, 46]: 85%
residual activity [7, 46]: 91%
residual activity [8, 46]: 61%
residual activity [9, 46]: 85%
residual activity [10, 46]: 63%
residual activity [11, 46]: 100%
residual activity [12, 46]: 100%
inhibition [13]: 30.2%
residual activity [14, 46]: 70%
residual activity [15, 46]: 71%
residual activity [16, 46]: 71%
residual activity [17, 46]: 100%
residual activity [18, 46]: 75%
residual activity [19, 46]: 91%
residual activity [20, 46]: 100%
residual activity [21, 46]: 89%
residual activity [22, 46]: 100%
residual activity [23, 46]: 76%
residual activity [24, 46]: 57%
residual activity [25, 46]: 100%
residual activity [26, 46]: 100%
residual activity [27, 46]: 98%
residual activity [28, 46]: 95%
residual activity [29, 46]: 99%
residual activity [30, 46]: 85%
residual activity [31, 46]: 61%
residual activity [32, 46]: 74%
residual activity [33, 46]: 86%
residual activity [34, 46]: 100%
residual activity [35, 46]: 92%
residual activity [36, 46]: 86%
residual activity [37, 46]: 100%
residual activity [38, 46]: 88%
residual activity [39, 46]: 100%
residual activity [40, 46]: 75%
residual activity [41, 46]: 71%
residual activity [42, 46]: 100%
residual activity [43, 46]: 100%
residual activity [44, 46]: 76%
residual activity [45, 46]: 100%

CN(c1ccnc(CNc2nc(Nc3ccc4c(c3)CC(=O)N4)ncc2C(F)(F)F)n1)S(C)(=O)=O [PF-00911705]
residual activity [1, 47]: 100%
residual activity [2, 47]: 23%
residual activity [3, 47]: 4.6%
residual activity [4, 47]: 80%
residual activity [5, 47]: 46%
residual activity [6, 47]: 100%
residual activity [7, 47]: 4.8%
residual activity [8, 47]: 95%
residual activity [9, 47]: 76%
residual activity [10, 47]: 69%
residual activity [11, 47]: 92%
residual activity [12, 47]: 66%
inhibition [13]: 1.75%
residual activity [14, 47]: 68%
residual activity [15, 47]: 10%
residual activity [16, 47]: 68%
residual activity [17, 47]: 88%
residual activity [18, 47]: 73%
residual activity [19, 47]: 1.7%
residual activity [20, 47]: 100%
residual activity [21, 47]: 100%
residual activity [22, 47]: 68%
residual activity [23, 47]: 85%
residual activity [24, 47]: 72%
residual activity [25, 47]: 100%
residual activity [26, 47]: 72%
residual activity [27, 47]: 100%
residual activity [28, 47]: 83%
residual activity [29, 47]: 90%
residual activity [30, 47]: 85%
residual activity [31, 47]: 26%
residual activity [32, 47]: 64%
residual activity [33, 47]: 100%
residual activity [34, 47]: 9.5%
residual activity [35, 47]: 75%
residual activity [36, 47]: 65%
residual activity [37, 47]: 100%
residual activity [38, 47]: 84%
residual activity [39, 47]: 52%
residual activity [40, 47]: 71%
residual activity [41, 47]: 66%
residual activity [42, 47]: 100%
residual activity [43, 47]: 100%
residual activity [44, 47]: 84%
residual activity [45, 47]: 65%
